Experimental data reported in patent US20260083126A1, “ANTIMICROBIAL COMPOSITIONS” (AHV International B.V., priority 2022, published 2026).

Tests used:
[1] = tested on: Staphylococcus epidermidis ATCC 35984; assay: MIC assay (growth inhibition of planktonic microorganisms); type: cell-based; details: 24 h at 37° C., MHB-II
Experimental: (§1) The exact weighed amount was noted and the volume of solvent to reach a 80 mM dilution calculated. Half of the volume was added first, by adding Tween 80 and let stand for 5 minutes. In a second step, the other half of the volume DMSO was added and resuspended to help the dilution process. The closed tube was inverted 5-10 times and then vortexed very thoroughly for at least 30 seconds. If after this procedure crystals were still visible, the tube was placed in a shaker at 37° C. at 150 rpm for at least 30 minutes (it is indicated if the dissolution period was longer than 2 h). […] In case of Bis(4-Chlorophenyl) thiosulfonate, a lower concentrated stock solution of 2 mM needed to be prepared. For that, the required amount of compound was weighed in and 2% v/v Tween80 and 2% v/v DMSO of the end volume of the stock solution was added to the substance. This mix was heated in a water bath set to 40° C. and occasionally shaken. When the whole amount of the substance reached dissolution, the volume was filled up with growth medium until the end volume. This 2 mM stock solution of Bis(4-Chlorophenyl) thiosulfonate was used in the MIC plate and diluted two-fold, resulting in a testing range of Bis(4-Chlorophenyl) thiosulfonate from 1 mM to 0.002 mM.
(§2) The microorganisms as indicated in Table 4 were used to inoculate a tryptic soy agar (TSA) plate and incubated overnight at 37° C. After incubation 3-5 well-isolated colonies with the same morphology were selected from the TSA plate and resuspended in 2 mL 0.9% saline solution with 3-6 glass beads and vortexed. The optical density at 600 nm (OD600) of the bacterial suspension was measured with a spectrophotometer (Evolution™ 201/220 UV-Visible Spectrophotometer, Thermo Fisher Scientific) and diluted to an OD600 of 0.0008, which resembles 10^6 CFU/mL.
(§3) The MIC assay was performed in a flat-bottom 96-microtiter plate. 50 μL of MHB-II was added into columns 2-11, and 100 μL to column 12 for sterility control. 100 μL of the 8 mM test compound solution (method 1) was added to column 1. A two-fold dilution series of the solution in MHB-II was achieved by resuspending 50 μL of the 8 mM solution from column 1 to column 2. This step was repeated until column 10. The respective concentration of Tween 80 and DMSO in column 1 was 2.5%, which is two-fold diluted throughout the plate. 50 μL of the bacterial suspension was added to column 1-11. The microtiter plates were sealed with adhesive polyethylene film for sealing microplates (Diversified Biotech) and incubated for 24 h at 37° C. After incubation the OD was measured at 600 nm with the Varioskan (Thermo Fisher Scientific). The minimal concentration which causes reduction of final OD600 of the bacterial culture by 50% (MIC50) and by 90% (MIC90) was calculated after normalization of the obtained OD values to the growth control in column 11. This assay was repeated three times in three independent experiments.

[2] = tested on: Pseudomonas aeruginosa ATCC 27853 biofilm; assay: MBEC assay (48 h biofilm, CFU log reduction); type: cell-based; details: 20 h treatment, 0.125-1 mM tested
Experimental: (§4) For the MBEC assay (method 1.3) the solutions need to be diluted to a final concentration of 2 mM in 0.9% saline solution and then further diluted to 1 mM, 0.5 mM, 0.25 mM and 0.125 mM in saline. Those dilutions were added as treatment to the 96 well plates with the grown biofilm (see method 3) (0.5 mL needed for one strain). The dilution must stay transparent.
(§5) Frozen aliquots of Staphylococcus epidermis ATCC 35984 and Pseudomonas aeruginosa ATCC 27853 were used to inoculate 20 mL of Tryptic Soy Broth (TSB) in a 100 mL Erlenmeyer flask at 37° C. and 150 rpm and incubated overnight (Infors). The OD600 of the overnight culture was measured with a spectrophotometer (Evolution™ 201/220 UV-Visible Spectrophotometer, Thermo Fisher Scientific) and diluted to an ( ) 600 of 0.2, which resembles 10^8 CFU/mL. The cell suspension of OD600=0.2 was seeded into a U-bottom-shaped 96 well plates by pipetting 100 μL per well in column 1-11, column 12 was filled with 100 μL medium as sterility control. The 96 well plates were sealed with adhesive polyethylene film for sealing microplates and incubated for 48 h at 37° C. at static conditions. After the biofilm growth phase, 100 μL of treatment solutions (method 1) were added to the vials resulting in treatment concentrations of 1 mM, 0.5 mM, 0.25 mM and 0.125 mM and with the respective concentration of Tween 80 and DMSO each at 0.63%, 0.32%, 0.16% and 0.08%. The same concentration was applied to four different wells of the same bacterial strain, resulting in four replicates for each concentration and strain. The treatment was incubated for 20 h at 37° C. at static conditions. After the treatment the supernatant was carefully removed and the well with the biofilm washed carefully for one time with 200 μL 0.9% saline solution. 200 μL saline solution was added and the biofilm was resuspended thoroughly. When fully homogenized then 20 μl, was used for the first dilution in 180 μL 0.9% saline solution, which was prepared in a second plate. This dilution was continued until dilution step 10E-5 and 100 μL of the 10E-4 and 10E-5 dilution plated on a TSA plate. The TSA plates were incubated at 37° C. for 24 h. The colonies on the plates were enumerated, the colony forming units per ml, of the dispensed biofilm and averages thereof and the log reduction in comparison with the untreated sample from the same wells plate calculated. Reduction of colony forming units goes hand in hand with the thickness of the biofilm and thus with the number bacteria that are present in the biofilm. Therefore, a significant reduction of colony forming units in the biofilm was defined at the value of log reduction >1 or more. This assay was repeated two times in two independent experiments)

[3] = tested on: Pseudomonas aeruginosa ATCC 27853; assay: MIC assay (growth inhibition of planktonic microorganisms); type: cell-based; details: 24 h at 37° C., MHB-II
Experimental: as §1, §2, §3
Hereafter, the stock solutions of the compounds were used in three repetitions in a minimal inhibitory concentration (MIC) assay at a 2-fold dilution range with various bacteria from the gram-positive and gram-negative group and a yeast, Candida albicans. The concentrations that show only less than 10% growth after 24 h were considered the MIC90-values, whereas the concentrations that show 50% growth after 24 h when compared to the bacterial growth control were considered the MIC50-values. Escherichia coli and Staphylococcus aureus were used as representatives for a gram-negative bacteria and gram-positive bacteria, respectively. Furthermore, the yeast C. albicans was also tested.
In an Eppendorf tube between 10-20 mg of the test compound was weighed. Hereafter, the required amount of Tween 80 was added, followed by the amount DMSO. After vigorous shaking, the dissolved and transparent dilutions were diluted 10 times with Mueller Hinton Broth (MHB) for the MIC assay. […]

[4] = tested on: Staphylococcus epidermis ATCC 35984 biofilm; assay: MBEC assay (48 h biofilm, CFU log reduction); type: cell-based, Staphylococcus epidermidis; details: 20 h treatment, 0.125-1 mM tested
Experimental: as §4, §5

[5] = tested on: Staphylococcus aureus LUH14616; assay: Resistance development on repeated exposure (19 passages); type: cell-based
Experimental: Experimental design. Potential resistance to AM-8 was assessed as described by Habets and Brockhurst (2012) (Therapeutic antimicrobial peptides may compromise natural immunity. Biol Lett 8:416-418). Briefly, log phase bacteria (S. aureus LUH 14616) were diluted in RPMI-mod to a concentration of 2×10^6 CFU/ml. Next, 50 μl of this bacterial suspension were mixed with 50 μl of a range of dilutions of AM-8 or—as comparator-rifampicin in v-bottom 96-wells plates. Thereafter, the plates were covered with a plastic seal and incubated for 24 hrs at 37° C. in a shaking incubator (200 rpm). The plates were then centrifuged for 5 min at 2,000 rpm and the growth inhibition was determined. To start the resistance development testing, 100 μl of a mid-log bacterial suspension containing 2×10^6 CFU/ml were mixed with 150 μl of RPMI-mod and 5 μl of this diluted bacterial suspension were applied to v-bottom wells containing a dilution range of AM-8 or antibiotics (various concentrations below and above MIC) in RPMI-mod (RPMI 1640 modified with 20 mM Hepes and L-glutamine and without sodium bicarbonate (Sigma-Aldrich); further referred to as RPMI-mod). After 24 hrs at 37° C. in a shaking incubator (200 rpm) the growth inhibition was determined. 100 μl of the bacterial suspension from the 0.5×MIC wells were mixed with 150 μl of RPMI-mod and 5 μl of the diluted bacterial suspension were used to inoculate a new 96-wells plate containing a dilution series of AM-8 or rifampicin, and these mixtures were then incubated as described above. If resistance developed, the concentration range of AM-8 and/or antibiotic was adjusted accordingly. This was repeated 19 times. Results are expressed as the fold-increase in MIC compared to the MIC at the start of the experiment.

[6] = reduction of final OD600 by 50%
[7] = reduction of final OD600 by 90%

S. epidermidis MIC50 [1, 6] [µM]	S. epidermidis MIC90 [1, 7] [µM]	P. aeruginosa MIC50 [3, 6] [µM]	P. aeruginosa MIC90 [3, 7] [µM]	MIC50 ([1]; Staphylococcus epidermidis, ATCC35984, reduction of final OD600 by 50%, read-out: S. epidermidis MIC50) [µM]	MIC90 ([1]; Staphylococcus epidermidis, ATCC35984, reduction of final OD600 by 90%, read-out: S. epidermidis MIC90) [µM]	MIC50 ([3]; Pseudomonas aeruginosa, ATCC27853, 24 h, reduction of final OD600 by 50%, read-out: P. aeruginosa MIC50) [µM]	MIC90 ([3]; Pseudomonas aeruginosa, ATCC27853, reduction of final OD600 by 90%, read-out: P. aeruginosa MIC90) [µM]	Structure (SMILES)	P. aeruginosa MBEC mM with log reduction ≥1 [2] [mM]	S. epidermidis MBEC mM with log reduction ≥1 [4] [mM]	fold-increase in MIC compared to the MIC at the start ([5]; after passage 10) [fold]	fold-increase in MIC compared to the MIC at the start ([5]; after the last passage) [fold]	fold-increase in MIC compared to the MIC at the start ([5]; at passages 4-5) [fold]
20	20	20	20	–	–	–	–	[O-][S+](Sc1ccc(Cl)cc1)c1ccc(Cl)cc1 (stereo not drawn) [Bis (4-chlorophenyl) thiosulfinate, Bis(4-chlorophenyl) thiosulfinate]	>1	>1	–	–	–
–	–	–	–	> 4000	> 4000	> 4000	> 4000	CC(C)SSC(C)C [Di-isopropyl disulfide, reference compound]	>1	>1	–	–	–
–	–	–	–	–	–	–	–	CO[C@H]1/C=C/O[C@@]2(C)Oc3c(C)c(O)c4c(O)c(c(/C=N/N5CCN(C)CC5)c(O)c4c3C2=O)NC(=O)/C(C)=C\C=C\[C@H](C)[C@H](O)[C@@H](C)[C@@H](O)[C@@H](C)[C@H](OC(C)=O)[C@@H]1C [rifampicin, reference compound]	–	–	146	> 292	10
